In patent US20240239799A1, “(S)-1-(5-((PYRIDIN-3-YL)THIO)PYRAZIN-2-YL)-4'H,6'H-SPIRO[PIPERIDINE-4,5'-PYRROLO [1,2-B]PYRAZOL]-4'-AMINE DERIVATIVES AND SIMILAR COMPOUNDS AS SHP2 INHIBITORS FOR THE TREATMENT OF E.G. CANCER” (C.N.C.C.S. S.C.A.R.L. COLLEZIONE NAZIONALE DEI COMPOSTI …, priority 2021, published 2024):

Experiments:
[1] = target: T1, SHP-2 enzyme (Met1-Leu525) (Homo sapiens, UniProt Q06124); experiment: SHP2 inhibition enzymatic assay (DiFMUP substrate, IRS1 peptide activation); format: biochemical; conditions: 0.5 nM SHP-2, 500 nM IRS1 peptide, 75 μM DiFMUP; read-out: SHP2wt - IC50
T1 construct: synthetized by Origene, Met1-Leu525, cat #TP750155; purchased Origene TP750155
T1 sequence (Q06124 1-525): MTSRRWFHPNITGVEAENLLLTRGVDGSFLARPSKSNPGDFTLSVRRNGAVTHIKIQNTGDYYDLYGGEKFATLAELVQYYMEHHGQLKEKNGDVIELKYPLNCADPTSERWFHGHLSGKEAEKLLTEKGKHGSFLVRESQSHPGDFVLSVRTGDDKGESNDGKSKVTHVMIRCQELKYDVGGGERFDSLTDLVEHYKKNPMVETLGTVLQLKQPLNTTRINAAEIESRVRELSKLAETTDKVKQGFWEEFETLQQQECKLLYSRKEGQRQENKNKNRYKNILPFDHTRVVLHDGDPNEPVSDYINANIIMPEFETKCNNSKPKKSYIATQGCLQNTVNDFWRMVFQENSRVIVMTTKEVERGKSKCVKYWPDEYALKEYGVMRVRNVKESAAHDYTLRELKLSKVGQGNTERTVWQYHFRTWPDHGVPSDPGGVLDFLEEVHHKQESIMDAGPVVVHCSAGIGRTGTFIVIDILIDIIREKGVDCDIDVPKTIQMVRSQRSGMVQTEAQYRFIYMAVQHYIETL

[2] = system: phospho-ERK1/2 (Thr202/Tyr204) in KYSE-520 cells; experiment: Phospho-ERK cellular assay (TR-FRET); format: cell-based; conditions: Homo sapiens, KYSE-520, 2 h, KYSE-520 cells, 2 h at 37° C.; read-out: pERK IC50
Summary of the method: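 KYSE-520 cells plated overnight, then exposed to compound for 2 h at 37° C and lysed. Phospho-ERK1/2 (Thr202/Tyr204) detected by TR-FRET with Eu-cryptate and D2 antibodies after overnight incubation at rt. IC50 from four-parameter fit, normalised to DMSO (0%) and no-cell (100%) controls.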

[3] = target: T2, SHP2 (Avi-G4SG4S-PTPN11(1-525)) (Homo sapiens, UniProt Q06124); experiment: Binding kinetic assay by surface plasmon resonance (SPR); conditions: Biacore T200, single cycle kinetic, 1:1 Langmuir binding model; for koff: triplicate
T2 construct: (Avi-G4SG4S-PTPN11(1-525)); purchased Viva Biotech Ltd
T2 sequence (Q06124 1-525): T1 sequence (Q06124 1-525)
Method: A binding assay for measuring SHP2 inhibitors binding kinetic was developed using a Biacore T200 Instrument (Cytiva, Sweden). […] Data analysis was performed by Biacore T200 Evaluation software (Cytiva), and kinetic parameters were evaluated by a global fitting according to a 1:1 Langmuir binding model. Each molecule was tested in triplicate on separate flow channels.

| Compound | IC50 [1] [nM] | IC50 [2] [nM] | Residence time 1/koff SPR [3] [s] | koff [3] [s⁻¹] |
| --- | --- | --- | --- | --- |
| Nc1nccc(Sc2cnc(N3CCC4(CC3)Cn3nc5c(c3[C@H]4N)CCC5)c3cncn23)c1Cl [Example 21, (S)-1′-(5-((2-amino-3-chloropyridin-4-yl)thio)imidazo[1,5-a]pyrazin-8-yl)-1,2,3,8-tetrahydro-6H-spiro[cyclopenta[d]pyrrolo[1,2-b]pyrazole-7,4′-piperidin]-8-amine] | ≤ 50 | < 100 | 12903 | 7.75e-05 |
| Cc1cc2n(n1)CC1(CCN(c3ncc(Sc4ccnc(N)c4Cl)n4cncc34)CC1)[C@@H]2N [Example 23, (S)-1-(5-((2-amino-3-chloropyridin-4-yl)thio)imidazo[1,5-a]pyrazin-8-yl)-2′-methyl-4′H,6′H-spiro[piperidine-4,5′-pyrrolo[1,2-b]pyrazol]-4′-amine] | ≤ 50 | < 100 | 6536 | 0.000153 |
| N[C@@H]1c2ccnn2CC12CCN(c1cnc(Sc3ccn4ccnc4c3Cl)cn1)CC2 [Example 31, (S)-1-(5-((8-chloroimidazo[1,2-a]pyridin-7-yl)thio)pyrazin-2-yl)-4′H,6′H-spiro[piperidine-4,5′-pyrrolo[1,2-b]pyrazol]-4′-amine] | ≤ 50 | < 100 | 12674 | 7.89e-05 |
| N[C@@H]1c2c(F)cnn2CC12CCN(c1cnc(Sc3ccn4ccnc4c3Cl)cn1)CC2 [Example 49, (S)-1-(5-((8-chloroimidazo[1,2-a]pyridin-7-yl)thio)pyrazin-2-yl)-3′-fluoro-4′H,6′H-spiro[piperidine-4,5′-pyrrolo[1,2-b]pyrazol]-4′-amine] | ≤ 50 | < 100 | 14493 | 6.9e-05 |

More lines, now with the values ahead:

| IC50 [1] [nM] | IC50 [2] [nM] | Residence time 1/koff SPR [3] [s] | koff [3] [s⁻¹] | Compound |
| --- | --- | --- | --- | --- |
| ≤ 50 | < 100 | 30303 | 3.3e-05 | Nc1nccc(Sc2cnc(N3CCC4(CC3)Cn3nc5c(c3[C@H]4N)COC5)cn2)c1Cl [Example 27, (S)-1′-(5-((2-amino-3-chloropyridin-4-yl)thio)pyrazin-2-yl)-1,8-dihydro-3H,6H-spiro[furo[3,4-d]pyrrolo[1,2-b]pyrazole-7,4′-piperidin]-8-amine] |
| ≤ 50 | > 500 | 1715 | 0.000583 | Nc1nccc(Sc2cnc(N3CCC4(CC3)Cn3nc5c(c3[C@H]4N)COC5)c3cncn23)c1Cl [Example 29, (S)-1′-(5-((2-amino-3-chloropyridin-4-yl)thio)imidazo[1,5-a]pyrazin-8-yl)-1,8-dihydro-3H,6H-spiro[furo[3,4-d]pyrrolo[1,2-b]pyrazole-7,4′-piperidin]-8-amine] |
| ≤ 50 | < 100 | 1062 | 0.000942 | Nc1nccc(Sc2cnc(N3CCC4(CC3)Cn3nncc3[C@H]4N)cn2)c1Cl [Example 38, (S)-1-(5-((2-amino-3-chloropyridin-4-yl)thio)pyrazin-2-yl)-4′H,6′H-spiro[piperidine-4,5′-pyrrolo[1,2-c][1,2,3]triazol]-4′-amine] |
